Source: patent US20200190073A1, “SUBSTITUTED SUCCINIMIDE DERIVATIVES AS PESTICIDES” (BASF SE, priority 2017, published 2020)
Read-outs that look alike come from different tables or passages of the source.

Key:
Type in all cases: in vivo
[1] = tested on: Tobacco Budworm (Heliothis virescens); test: B.4 Tobacco budworm, insect diet with eggs; conditions: 120 h, read-out: mortality in comparison with untreated controls
Procedure, shortened: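 Wells held insect diet and 15–25 H. virescens eggs; compounds at several concentrations, formulated in 75:25 v/v water:DMSO, were sprayed at 10 μl onto the diet in two replicates. After 5 days at about 28±1 °C and 80±5% relative humidity, egg and larval mortality was scored visually.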

[2] = tested on: Boll Weevil (Anthonomus grandis); test: B.5 Boll weevil, insect diet with eggs; conditions: 120 h, read-out: mortality in comparison with untreated controls
Procedure, shortened: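 Compounds in 75% water/25% DMSO sprayed at several concentrations (5 μl, two replicates) onto insect diet in 96-well microtiter plates holding 5-10 A. grandis eggs. After 5 days at about 25±1° C and 75±5% relative humidity, egg and larval mortality scored visually.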

[3] = tested on: Red Spider Mite (Tetranychus kanzawai); test: B.9 Red spider mite, sprayed cowpea beans; conditions: read-out: mortality in comparison with untreated controls
Procedure, shortened: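 Potted cowpea beans aged 4-5 days were sprayed with compound in 1:1 water:acetone plus 0.01% surfactant, air dried, then infested with ≥30 mites. Kept at about 25-27° C and 50-60% relative humidity; percent mortality scored 72 h after treatment.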

[4] = tested on: Diamond back moth (Plutella xylostella); test: B.1 Diamond back moth, cabbage leaf dip; conditions: foliar, read-out: mortality in comparison with untreated controls
Procedure, shortened: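 Cabbage leaves were dipped in compound in 1:1 water:acetone with 0.01% surfactant, air-dried and infested with ten 3rd-instar larvae. Mortality and feeding damage (0–100% scale) were scored 72 h after treatment.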

[5] = tested on: Brown Marmorated Stink Bug (Halyomorpha halys); test: B.13 Brown marmorated stink bug, spray; conditions: 120 h, read-out: mortality in comparison with untreated controls
Procedure: B.13 Brown Marmorated Stink Bug (Halyomorpha halys)
The active compound was dissolved at the desired concentration in a mixture of 1:1 (vol:vol) distilled water:acetone. Surfactant (Kinetic HV) was added at a rate of 0.01% (vol/vol). The test solution was prepared at the day of use.
Row peanuts and soybean seeds were placed into microwavable plastic cups and inoculated with five adult stage H. halys. Using a hand atomizer, approximately 1 ml solution is sprayed into each cup, insects and food present. A water source was provided (cotton wick with water) Each treatment is replicated 4-fold. Assay arenas are kept at about 25° C. Percent mortality was recorded after 5 days.

[6] = tested on: Green Soldier Stink Bug (Nezara viridula); test: B.11 Green soldier stink bug, sprayed soybean pods; conditions: 120 h, read-out: mortality in comparison with untreated controls
Procedure, shortened: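 Ten late 3rd-instar N. viridula on soybean pods in Petri dishes were sprayed with compound in 1:1 water:acetone plus 0.01% surfactant. Dishes were held at about 25° C. Percent mortality was scored after 5 days.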

[7] = tested on: Rice Green Leafhopper (Nephotettix virescens); test: B.8 Rice green leafhopper, sprayed rice seedlings; conditions: read-out: mortality in comparison with untreated controls
Procedure, shortened: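 Potted rice seedlings, washed 24 h earlier, were sprayed with 5-6 ml of compound in 1:1 acetone:water plus 0.01% surfactant. Once dry, they were caged and infested with 10 adults, then held at about 28-29° C and 50-60% RH. Percent mortality was scored at 72 h.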

[8] = tested on: Southern Armyworm (Spodoptera eridania); test: B.10 Southern armyworm, sprayed lima bean plants; conditions: 96 h, read-out: mortality in comparison with untreated controls
Procedure: B.10 Southern Armyworm (Spodoptera eridania)
The active compounds were formulated in cyclohexanone as a 10,000 ppm solution supplied in tubes. The tubes were inserted into an automated electrostatic sprayer equipped with an atomizing nozzle and they served as stock solutions for which lower dilutions were made in 50% acetone:50% water (v/v). A nonionic surfactant (Kinetic®) was included in the solution at a volume of 0.01% (v/v).
Lima bean plants (variety Sieva) were grown 2 plants to a pot and selected for treatment at the 1st true leaf stage. Test solutions were sprayed onto the foliage by an automated electrostatic plant sprayer equipped with an atomizing spray nozzle. The plants were dried in the sprayer fume hood and then removed from the sprayer. Each pot was placed into perforated plastic bags with a zip closure. About 10 to 11 armyworm larvae were placed into the bag and the bags zipped closed. Test plants were maintained in a growth room at about 250C and about 20-40% relative humidity for 4 days, avoiding direct exposure to fluorescent light (24 hour photoperiod) to prevent trapping of heat inside the bags. Mortality and reduced feeding were assessed 4 days after treatment, compared to untreated control plants.

[9] = tested on: Neotropical Brown Stink Bug (Euschistus heros); test: B.12 Neotropical brown stink bug, dipped pole bean; conditions: 120 h, read-out: mortality in comparison with untreated controls
Procedure: B.12 Neotropical Brown Stink Bug (Euschistus heros)
For evaluating control of Euschistus heros through contact the test unit consisted of 100 ml disposable plastic beakers with transparent lids.
The compounds were formulated using a solution containing 50% water and 50% acetone. 50 ml of different concentrations of formulated compounds or mixtures were prepared in a glass petri dish and used for dipping three 6 cm sections of fresh pole bean. Each treatment was replicated eight times.
After application, the pole bean sections were air-dried and 5 adult E. heros placed in each beaker. The E. heros were then allowed to suck on the treated pole bean sections and incubated at 23±1° C., 50±5% RH for 5 days. E. heros mortality was then visually assessed.

[10] = 2500 ppm, egg and larval mortality, 5 days

CN1C(=O)CC(NC(=O)c2ccc(C3=NOC(c4cc(Cl)c(F)c(Cl)c4)(C(F)(F)F)C3)cc2Cl)C1=O (centres unmarked) [Compound I-1-2, 2-Chloro-4-[5-(3,5-dichloro-4-fluoro-phenyl)-5-(trifluoromethyl)-4H-isoxazol-3-yl]-N-(1-methyl-2,5-dioxo-pyrrolidin-3-yl)benzamide]
> 75%: mortality at 2500 ppm [1] | mortality at 2500 ppm [2] | mortality at 300 ppm ([3]; 72 h) | mortality at 300 ppm ([4]; 72 h) | mortality at 100 ppm [5] | mortality at 300 ppm [6] | mortality at 300 ppm ([7]; 72 h) | mortality at 10 ppm [8] | mortality at 500 ppm [9]

CCN1C(=O)CC(NC(=O)c2ccc(C3=NOC(c4cc(Cl)c(F)c(Cl)c4)(C(F)(F)F)C3)cc2Cl)C1=O (centres unmarked) [Compound I-1-3]
> 75%: mortality at 2500 ppm [1] | mortality at 2500 ppm [2] | mortality at 300 ppm ([3]; 72 h) | mortality at 300 ppm ([4]; 72 h) | mortality at 100 ppm [5] | mortality at 300 ppm [6] | mortality at 300 ppm ([7]; 72 h) | mortality at 10 ppm [8]

CN1C(=O)CC(NC(=O)c2ccc(C3=NOC(c4cc(Cl)c(F)c(Cl)c4)(C(F)(F)F)C3)c3c2CCC3)C1=O (centres unmarked) [Compound I-1-10]
> 75%: mortality at 2500 ppm [1] | mortality at 2500 ppm [2] | mortality at 300 ppm ([3]; 72 h) | mortality at 300 ppm ([4]; 72 h) | mortality at 300 ppm [6] | mortality at 300 ppm ([7]; 72 h) | mortality at 10 ppm [8] | mortality at 500 ppm [9]

CN1C(=O)C[C@@H](NC(=O)c2ccc(C3=NOC(c4cc(Cl)c(F)c(Cl)c4)(C(F)(F)F)C3)cc2Cl)C1=O (some centres unmarked) [Compound I-1-13]
> 75%: mortality at 2500 ppm [1] | mortality at 2500 ppm [2] | mortality at 300 ppm ([3]; 72 h) | mortality at 300 ppm ([4]; 72 h) | mortality at 100 ppm [5] | mortality at 300 ppm [6] | mortality at 300 ppm ([7]; 72 h) | mortality at 10 ppm [8] | mortality at 300 ppm [8] | mortality at 500 ppm [9]

CCN1C(=O)C[C@@H](NC(=O)c2ccc(C3=NOC(c4ccc(F)c(Cl)c4)(C(F)(F)F)C3)cc2Cl)C1=O (some centres unmarked) [Compound I-1-53]
> 75%: mortality at 2500 ppm [1, 10] | mortality at 2500 ppm [2, 10] | mortality at 300 ppm ([3]; 300 ppm, 72 hours after treatment) | mortality at 300 ppm ([4]; 300 ppm, cabbage leaf dip, 3rd instar larvae, 72 hours after treatment) | mortality at 300 ppm ([6]; 300 ppm, late 3rd instar, after 5 days) | mortality at 300 ppm ([7]; 300 ppm, adults on sprayed rice seedlings, after 72 hours)
